# Experimental data: US20120252730A1, “PLATELET AGGREGATION INHIBITORS” (UNIVERSITY OF CHICAGO, priority 2009, published 2012)
# Ends that are not written are not given here.
# How the values were obtained:
# αIIbβ3 CHO K1 cells [1] = test: Ac-GXGDSC peptide array cell adhesion, αIIbβ3 CHO K1 cells; assay type: cell-based, human; settings: 0.5% peptide spots; 300 μM cRGDFG
# Protocol: (§1) Cysteine-terminated peptides were immobilized onto maleimide-presenting SAMs by adding 40 μL of 1 mM peptide solution to the biochip and incubating at 37° C. for 1 hour. Substrates were rinsed with DIUF water and ethanol and dried under a stream of nitrogen. αIIbβ3 CHO K1 cells were detached from culture plates with 1 mM EGTA/2 mM EDTA in PBS (phosphate-buffered saline), rinsed with serum-free F-12K medium, centrifuged and resuspended in serum-free F-12K medium supplemented with cRGDFG (SEQ ID NO: 12) (300 μM) and 1× penicillin/streptomycin. After 15-minute of incubation, cells (200,000/mL) were added to substrates in 24-well culture plates. After 2 hour incubation at 37° C. and 5% CO2, media was exchanged for F-12K medium supplemented with 10% FBS, 1× penicillin/streptomycin and cRGDFG (SEQ ID NO: 12) (300 μM). After 2 hours, the substrates were washed gently with warm PBS, and adherent cells were immediately fixed with 4% formaldehyde for 30 minutes, visualized with a 20× objective of a Zeiss Axiovert 200 inverted microscope, and photographed. For cell adhesion assays mediated by Ac-GXGDSC (SEQ ID NO: 26), αIIbβ3 CHO K1 cells were incubated on a 5×4 circle (1 mm diameter) array for 1 hour with serum-free F-12K medium supplemented with cRGDFG (SEQ ID NO: 12) (300 μM) and 1× penicillin/streptomycin, followed by media exchange to F-12K medium supplemented with 10% FBS, 1× penicillin/streptomycin and cRGDFG (SEQ ID NO: 12) (300 μM. The substrates were washed with warm PBS, and adherent cells were immediately fixed and permeabilized with 4% formaldehyde and 0.5% Triton-X for 30 minutes. Fixed cells were stained with DAPI, visualized and photographed with a 20× objective as described. The number of adherent cells per field of view was counted using Image J software. Cells were counted in at least three fields for each circle, and each experiment was repeated 3 times. The degree of adhesion is reported as a percentage of cells that adhere relative to control experiments with the peptide Ac-GRGDSC (SEQ ID NO: 28).
# To further assay the binding of peptide ligands to the […] integrin for XGD peptide ligands, an array was used to assess the adhesion of cells to peptides having the arginine residue substituted with each amino acid other than cysteine (e.g., A, D, E, F, G, H, I, K, L, M, N, P, Q, R, S, T, V, W, and Y). The library of Ac-GXGDSC (SEQ ID NO: 26) peptides was synthesized and immobilized in an array with each peptide occupying a 1 mm diameter region of the monolayer (FIG. 61). A suspension of αIIbβ3 CHO K1 cells was applied to the entire array and cells were allowed to attach to regions presenting the various peptides. The substrates were then rinsed and stained with DAPI, and the cells were counted to determine the relative efficiency of cell attachment to peptides in the library. […] Substitution with leucine and isoleucine were also active, though at a lower level.
# CHO-K1 cells = test: Ac-GXGDSC peptide array cell adhesion, CHO K1 cells; assay type: cell-based
# Protocol: Cysteine-terminated peptides were immobilized onto maleimide-presenting SAMs by adding 40 μL of 1 mM peptide solution to the biochip and incubating at 37° C. for 1 hour. Substrates were rinsed with DIUF water and ethanol and dried under a stream of nitrogen. αIIbβ3 CHO K1 cells were detached from culture plates with 1 mM EGTA/2 mM EDTA in PBS (phosphate-buffered saline), rinsed with serum-free F-12K medium, centrifuged and resuspended in serum-free F-12K medium supplemented with cRGDFG (SEQ ID NO: 12) (300 μM) and 1× penicillin/streptomycin. After 15-minute of incubation, cells (200,000/mL) were added to substrates in 24-well culture plates. After 2 hour incubation at 37° C. and 5% CO2, media was exchanged for F-12K medium supplemented with 10% FBS, 1× penicillin/streptomycin and cRGDFG (SEQ ID NO: 12) (300 μM). After 2 hours, the substrates were washed gently with warm PBS, and adherent cells were immediately fixed with 4% formaldehyde for 30 minutes, visualized with a 20× objective of a Zeiss Axiovert 200 inverted microscope, and photographed. […] The number of adherent cells per field of view was counted using Image J software. Cells were counted in at least three fields for each circle, and each experiment was repeated 3 times. […]
# BHK 21 cells = test: Ac-GXGDSC peptide array cell adhesion, BHK 21 cells; assay type: cell-based
# HT1080 cells = test: Ac-GXGDSC peptide array cell adhesion, HT1080 cells; assay type: cell-based
# CHO K1 cells = test: Blocking of CHO K1 cell attachment to GRGDSC monolayer; assay type: cell-based; settings: 300 μM
# From the text: (§2) FIG. 2 depicts the results of FACS analyses and binding studies of a αIIbβ3 expressing CHO K1 cell line. […] Transfected αIIbβ3 CHO K1 cells express αIIbβ3 at the cell surface, as detected by anti-β3 and PAC-1 antibody (bottom) (the middle and right hand lanes show anti-β3 antibody and PAC-1 antibody binding, respectively). Panel B is a graph of the concentration of cRGDFG (SEQ ID NO: 12; where F is a D amino acid) versus adhesion of αIIbβ3 CHO K1 cells. The peptide cRGDFG (SEQ ID NO: 12), a cyclic peptide that specifically binds to α5 and αV integrins, inhibits CHO K1 cell adhesion to 0.5% GRGDSC (SEQ ID NO: 11) SAMs. Panels C-F are photomicrographs of cells adhering to GRGDSC (SEQ ID NO: 11).
# (§3) CHO K1 cells were used that were transfected with the αIIbβ3 receptor, as described previously (Salsmann et al., 2005). Cells were transfected with pcDNA3.1 vectors that coded for αIIb and β3 using FuGENE6 and analyzed by FACS after labeling with the PAC-1 (anti-αIIbβ3) and H-96 (anti-β3) antibodies. Approximately 30% of the cells expressed the receptor (FIG. 2A). Because the CHO K1 cells also express αv and α5 integrins on their surfaces, adhesion experiments were performed in the presence of the cyclic peptide cRGDFG (SEQ ID NO: 12), where F is a D amino acid. […] All experiments that follow, unless stated otherwise, were performed in the presence of 300 μM cRGDFG (SEQ ID NO: 12).
# αIIbβ3 CHO K1 cells [2] = test: Blocking of αIIbβ3 CHO K1 cell adhesion to GRGDSC monolayer; assay type: cell-based, human; settings: 300 μM
# From the text: as §2, §3
# αvβ3 = αvβ3 (Homo sapiens, UniProt P05106+P06756); settings: cited from earlier work
# αvβ3, sequence (P06756 31-889 limits assumed): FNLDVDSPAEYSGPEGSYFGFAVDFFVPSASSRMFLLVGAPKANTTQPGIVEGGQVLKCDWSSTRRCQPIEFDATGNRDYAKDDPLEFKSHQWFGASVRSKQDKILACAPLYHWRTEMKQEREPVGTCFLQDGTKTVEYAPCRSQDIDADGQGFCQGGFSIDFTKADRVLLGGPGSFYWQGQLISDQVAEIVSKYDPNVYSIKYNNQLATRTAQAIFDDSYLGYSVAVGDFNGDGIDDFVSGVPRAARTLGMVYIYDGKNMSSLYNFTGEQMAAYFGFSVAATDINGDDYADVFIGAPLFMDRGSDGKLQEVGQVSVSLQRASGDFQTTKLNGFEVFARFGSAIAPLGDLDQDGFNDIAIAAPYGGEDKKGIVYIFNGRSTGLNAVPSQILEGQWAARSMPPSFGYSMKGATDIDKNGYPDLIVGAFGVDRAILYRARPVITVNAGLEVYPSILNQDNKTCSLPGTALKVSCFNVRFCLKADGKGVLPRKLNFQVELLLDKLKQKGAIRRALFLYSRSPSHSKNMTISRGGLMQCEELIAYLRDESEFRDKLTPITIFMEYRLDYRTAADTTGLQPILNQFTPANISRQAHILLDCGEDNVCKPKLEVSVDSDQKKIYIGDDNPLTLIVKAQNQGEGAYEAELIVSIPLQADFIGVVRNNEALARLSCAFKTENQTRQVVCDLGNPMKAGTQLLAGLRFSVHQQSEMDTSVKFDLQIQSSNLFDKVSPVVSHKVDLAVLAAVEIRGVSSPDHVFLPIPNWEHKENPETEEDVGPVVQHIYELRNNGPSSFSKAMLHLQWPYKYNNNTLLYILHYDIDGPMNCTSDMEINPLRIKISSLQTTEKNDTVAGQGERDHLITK
# αvβ3, sequence (P06756 891-1048 partner limits assumed): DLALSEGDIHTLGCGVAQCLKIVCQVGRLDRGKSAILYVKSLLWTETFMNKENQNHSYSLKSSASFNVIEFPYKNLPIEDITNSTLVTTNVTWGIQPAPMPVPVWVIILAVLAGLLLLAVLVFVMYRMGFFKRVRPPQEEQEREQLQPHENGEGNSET
# αvβ3, sequence (P05106 27-788): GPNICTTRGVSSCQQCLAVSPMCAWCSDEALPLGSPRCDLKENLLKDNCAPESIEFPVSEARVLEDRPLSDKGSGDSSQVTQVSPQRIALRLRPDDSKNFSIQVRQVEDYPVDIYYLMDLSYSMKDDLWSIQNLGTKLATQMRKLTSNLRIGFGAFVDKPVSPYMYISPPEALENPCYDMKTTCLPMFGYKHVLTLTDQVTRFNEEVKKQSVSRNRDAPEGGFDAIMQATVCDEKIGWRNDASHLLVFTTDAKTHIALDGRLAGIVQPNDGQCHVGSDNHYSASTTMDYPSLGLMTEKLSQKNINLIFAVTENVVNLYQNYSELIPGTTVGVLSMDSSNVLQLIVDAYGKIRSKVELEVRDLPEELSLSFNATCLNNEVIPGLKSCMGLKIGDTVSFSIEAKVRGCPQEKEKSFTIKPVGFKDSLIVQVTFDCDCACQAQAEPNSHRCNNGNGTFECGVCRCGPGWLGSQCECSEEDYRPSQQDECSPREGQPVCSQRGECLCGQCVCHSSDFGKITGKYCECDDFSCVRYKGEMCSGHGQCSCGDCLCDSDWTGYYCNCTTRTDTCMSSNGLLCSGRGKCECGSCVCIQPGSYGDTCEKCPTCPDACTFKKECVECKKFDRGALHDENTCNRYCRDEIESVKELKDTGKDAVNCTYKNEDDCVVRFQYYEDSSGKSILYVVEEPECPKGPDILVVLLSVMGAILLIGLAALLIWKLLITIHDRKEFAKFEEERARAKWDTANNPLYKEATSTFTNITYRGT
# platelets [3] = settings: cited from earlier work
# αIIbβ3 = biological target: T1, αIIbβ3 (Homo sapiens, UniProt P05106+P08514); settings: cited from earlier work
# T1 construct: host or cells: platelets
# platelets [4] = settings: cited from earlier work; remark: listed apart in the source
# αIIbβ3 CHO K1 cells [5] = test: Cell adhesion assay: αIIbβ3 CHO K1 cells on SAMs presenting immobilized peptides; assay type: cell-based, human; settings: 0.5% peptide SAM; in presence of 300 μM cRGDFG
# Protocol: Monolayers were prepared as described (Houseman, et al., 2003). Glass coverslips were sonicated for 30 minutes in deionized ultrafiltered (DIUF) water and then 30 minutes in ethanol and then dried under a stream of nitrogen. Titanium (4 nm) and then gold (29 nm) were evaporated onto the coverslips using an electron beam evaporator (Boc Edwards) at a rate of 0.05-0.10 nm/s and at a pressure of 1 μTorr. The gold-coated coverslips were immersed in an ethanolic solution of maleimide-terminated disulfide (1%) and tri(ethylene glycol)-terminated disulfide (99%) overnight at room temperature. The total disulfide concentration was 1 mM. The substrates were washed with DIUF water, ethanol and then dried under a stream of nitrogen.
# The pcDNA3.1 vectors that express human αIIb or β3, respectively, have been described previously (see e.g., Litvinov et al. (2006) Biochemistry, 45: 4957-4964). CHO K1, BHK 21 and HT1080 cells were purchased from ATCC. All CHO cells were cultured at 37° C. and 5% CO2 using F12K medium supplemented with 10% FBS and pen/strep. […] CHO K1 cells were transfected with αIIb and β3 cDNA with FuGENE following the supplier's protocol. Transfected cells were selected with 1 mg/mL zeocin and 1 mg/mL geneticin.
# as §1
# Monolayers were prepared that presented a mixture of maleimide groups and tri(ethylene glycol) groups with the former present at a density of 0.5% (relative to total alkanethiolate). The monolayers were treated with cysteine-terminated peptides to immobilize the ligands (FIG. 1A). In each case mass spectrometry was used to verify immobilization of the peptides in high yield (Su et al., 2002).
# The adhesion and spreading of αIIbβ3 CHO K1 cells to monolayers presenting GRGDSC (SEQ ID NO: 11), HHLGGAKQAGDVC (SEQ ID NO: 21) and a mixture of both peptides was compared. […]
# αIIbβ3 CHO K1 cells [6] = test: Immunostaining of cytoskeletal structure of αIIbβ3 CHO K1 cells adherent to model substrates; assay type: cell-based, human; settings: monolayers presenting the peptide; four hours; anti-vinculin, phalloidin, DAPI
# From the text: αIIbβ3 CHO K1 cells were allowed to adhere and spread on substrates as described above. Substrates were washed gently with PBS, and fixed and permeabilized as described above. Cells were stained with monoclonal anti-vinculin IgG to visualize focal adhesions, phalloidin to visualize stress fibers and DAPI to visualize the nucleus. Substrates were rinsed thoroughly with PBS and mounted on microscope slides with Aqua Poly/Mount (PolySciences Inc.). Substrates were visualized with a 100× objective of a Zeiss Axiovert 200 inverted microscope, and photographed.
# The assembly of focal adhesion and actin stress fibers of αIIbβ3 CHO K1 cells adhered to monolayers presenting GRGDSC (SEQ ID NO: 11), HHLGGAKQAGDVC (SEQ ID NO: 21) a mixture of both peptides, and adsorbed Fbg (FIGS. 3, E, F, G and H respectively) was compared. The αIIbβ3 CHO K1 cells were allowed to attach and spread on the monolayers for four hours, and then fixed the cells and probed with anti-vinculin IgG to visualize focal adhesions and with phalloidin-AF 488 to visualize actin stress fibers.
substance,measurement,setting,value
Ac-GRGDSC (Ac-GRGDSC-NH2),cell adhesion on Ac-GXGDSC array relative to Ac-GRGDSC,αIIbβ3 CHO K1 cells [1],mediated αIIbβ3 CHO K1 cell adhesion
same,cell adhesion on Ac-GXGDSC array,CHO-K1 cells,promoted significant cell adhesion
same,cell adhesion on Ac-GXGDSC array,BHK 21 cells,promoted significant cell adhesion
same,cell adhesion on Ac-GXGDSC array,HT1080 cells,promoted significant cell adhesion
cRGDFG,block of attachment of CHO K1 cells to monolayer presenting GRGDSC,CHO K1 cells,could efficiently block the attachment
same,effect on adhesion of αIIbβ3 CHO K1 cells to monolayer presenting GRGDSC,αIIbβ3 CHO K1 cells [2],did not interfere with adhesion
same,IC50,αvβ3,1.6 nM
same,affinity for αvβ3 relative to αIIbβ3 integrin,αvβ3,"approximately 1,400 fold"
LGGAKQAGDV (not fully specified (C-terminus)) [γ-derived peptide],inhibition of Fbg binding to platelets,platelets [3],inhibited Fbg binding to platelets with an affinity comparable to that of RGDS
same,less potent in inhibiting PAC-1 binding to αIIbβ3,αIIbβ3; compared with its inhibition of Fbg binding / RGDS,2.5 fold
same,inhibition of A2A9 binding to platelets,platelets [4],could inhibit the binding of A2A9 to platelets
RGD,inhibition of A2A9 binding to platelets,platelets [4],not
HHLGGAKQAGDVC (HHLGGAKQAGDVC-NH2) [Cys-terminated fibrinogen γ chain peptide immobilized on monolayer],adhesion of αIIbβ3 CHO K1 cells to monolayer presenting the peptide,αIIbβ3 CHO K1 cells [5],adhered
same,cytoskeletal structure and focal adhesions of adherent cells,αIIbβ3 CHO K1 cells [6],well-developed cytoskeletal structures and mature focal adhesions along the perimeter
RGDS (synthesized peptide inhibitor),inhibition of Fbg binding to platelets,platelets [3],blocked the binding of both PAC-1 and Fbg to platelets with equal potency
same,inhibition of PAC-1 binding,αIIbβ3,blocked the binding of both PAC-1 and Fbg to platelets with equal potency
